Results reported in publication PMC9953224, “Pharmacokinetic Evaluation of New Drugs Using a Multi-Labelling Approach and PET Imaging: Application to a Drug Candidate with Potential Application in Neuromuscular Disorders” (Biomedicines, 2023).
“Also recorded” adds a separate entry of the source. Read-outs that look alike come from different tables or passages of the source.

What was measured:
[1] = Pharmacokinetics from metabolite-corrected arterial plasma TACs after oral administration; assay type: in vivo, Sprague Dawley Rats; details: for MRT / half-life: Sprague Dawley, rat, arterial plasma; for MRT: read-out: MRT mean residence time (converted); for half-life: read-out: t1/2 terminal half-life
Experimental: (§1) Anaesthesia was induced with 5% isoflurane (IsoFlo®, Abbott Laboratories, Abbott Park, IL, USA) and maintained by 2% of isoflurane in 100% O2. During the experiment, rats were kept normothermic using a heating blanket (Homeothermic Blanket Control Unit; Bruker). The rat was positioned in supine position on an operating table and the two distal hind limbs were fixed forming an approximately 30° angle with the horizontal plane. The surgical region was scrubbed using Betadine, starting in the centre, and making a circular sweep outward. A skin incision was made in the femoral region. Soft tissue was dissected to expose the femoral neurovascular bundle, consisting of femoral vein, artery, and nerve. Fine tip forceps were placed between the artery, vein and nerve and were slowly opened to separate the vessels, exposing an approximately 1 cm length section of artery/vein. The vena profunda femoris was sutured to avoid retrograde bleeding via this vessel, and the sapheno-femoral junction was cauterized. A few millimetres from venatomy, a vascular clip was inserted in the direction of the catheter (to control the flow) and a suture was applied in the opposite direction (to avoid retrograde bleeding). The same operation was carried out both on the femoral vein and femoral artery. An appropriate syringe filled with 50 U/mL Heparin/physiologic saline solution was fixed at the terminus of the catheters and these were filled with heparinized saline solution. On the upper half of the vessel circumference, at a 45° angle, an incision was made and the catheter (fine bore polythene tubing: ID 0.58 mm, OD 0.98 mm) was inserted through the venotomy and advanced to the vascular clip. The vascular clip was then removed, and the catheter advanced distally towards the level of the inguinal ligament. The catheter was finally secured to the femoral vein/artery proximally and distally with 2 single knots using 4–0 braided silk suture. The catheters were connected to an in-house developed system composed by a peristaltic pump and gamma-radiation coincidence detector (Bioscan, B-FC-4100). The femoral artery catheter, the gamma detector, the peristaltic pump, and the femoral vein catheter were thus connected in series, to enable the extracorporeal circulation of blood (flow 150 μL/s from femoral artery to femoral vein) and continuous measurement of radioactivity in the blood (Figure 1).
(§2) The labelled compounds were administrated two different ways: (i) intravenous bolus infusion (ca. 37 MBq in 300 μL of saline solution was injected through the femoral vein catheter) and (ii) oral bolus administration. For oral administration, animals were fasted for 5 h. The radioactive dose (ca. 74 MBq in 300 μL of saline solution) was administered using flexible 20-gauge disposable flexible PTFE feeding needles (Fine Science Tools, F.S.T.) and a small animal Laryngoscope (Penn-Century, Model LS-2) for the correct visualization of the oesophagus. The study was conducted under no carrier added (NCA, dose adjusted to 1 μg/Kg) and carrier added (CA, dose adjusted to 5 mg/Kg) conditions. In all cases, data were imported in real time to an excel sheet using PLX-DAX add-on for Microsoft Excel (measured in volts per second).
(§3) Arterial blood samples (1 per animal) were withdrawn (see Figure 1) from the femoral artery catheter and introduced into a capillary (Microhaematocrit capillaries 75 × 1.55, Nahita). Samples were centrifuged at 11,000× g […] for 10 min and the haematocrit was determined. A second blood sample was withdrawn and the amount of radioactivity of a fixed volume (10 µL) was measured in an automatic gamma counter (2470 Wizard, PerkinElmer) to determine Cb (concentration of radioactivity in blood) and convert data imported with PLX-DAX (Volts per seconds) into Bq/s using a previously determined calibration curve. Values were then expressed as percentage of injected dose per gram of blood (% ID/g). […]

[2] = Pharmacokinetics from metabolite-corrected arterial plasma TACs after intravenous administration; assay type: in vivo, Sprague Dawley Rats; details: for MRT / Vd / half-life: Sprague Dawley, rat, arterial plasma; for MRT: read-out: MRT mean residence time (converted); for Vd / half-life: iv; for half-life: read-out: t1/2 terminal half-life
Experimental: as §1, §2, §3

FKBP12 = molecular target: T1, FKBP12 (Homo sapiens, UniProt P62942); assay: Competitive ligand binding assay (FKBP/FRB NanoBiT luminescence protein complementation) in HEK293 cells; assay type: cell-based
T1 construct: host or cells: HEK293
Experimental: Briefly, HEK293 (ATCC) cells were transfected with FKBP/FRB NanoBiT Control Pair (Promega, Madison, WI, USA) and kinetic measurements were performed 24 h after transfection with Nano-Glo Live Cell Reagent (Promega), as described by the manufacturer. A total of 30 nM rapamycin (Sigma-Aldrich, Madrid, Spain) and AHK2 (1 μM–10 mM) was sequentially added and each effect was recorded for 10 min. Specific activity was normalized to vehicle, and IC50 was calculated using GraphPad Prism by fitting the data to a four-parameter logistic curve.

[3] = both groups (1 µg/Kg and 5 mg/Kg) pooled together
[4] = 1 ug/kg, intravenous, 1 µg/Kg, n = 5
[5] = intravenous, both groups (1 µg/Kg and 5 mg/Kg) pooled together

T1 sequence (P62942 whole entry): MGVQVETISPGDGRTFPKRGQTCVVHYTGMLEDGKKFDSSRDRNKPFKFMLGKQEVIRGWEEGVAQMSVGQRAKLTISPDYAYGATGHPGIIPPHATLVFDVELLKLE

COc1ccc(SCc2cn(CCN(C)C)nn2)cc1 [AHK2, 1-[2-(N,N-dimethylamino)ethyl]-4-[(4-methoxyphenyl)thiomethyl]-1H-1,2,3-triazole]
AUC area under the curve ([1]; 1 µg/Kg): 6.68 ± 4.35 %IDxs/mL | Cl plasma clearance ([1]; 1 µg/Kg): 4.23 ± 3.58 mL/s | Vz volume of distribution based on the terminal slope ([1]; 1 µg/Kg): 2728.14 ± 1252.35 mL | AUC area under the curve ([1]; 5 mg/Kg): 13.35 ± 5.08 %IDxs/mL | Cl plasma clearance ([1]; 5 mg/Kg): 1.57 ± 0.69 mL/s | Vz volume of distribution based on the terminal slope ([1]; 5 mg/Kg): 1624.28 ± 1299.35 mL | MRT ([1]; 1 ug/kg): 8.51 min | half-life ([1]; 1 ug/kg): 9.16 ± 3.78 min | MRT ([1]; 5 mg/Kg): 9.36 min | half-life ([1]; 5 mg/Kg): 13 ± 11.1 min | MRT [1, 3]: 9 min | half-life [1, 3]: 11.3 ± 8.44 min | AUC area under the curve [1, 3]: 10.49 ± 5.65 %IDxs/mL | Cl plasma clearance [1, 3]: 2.71 ± 2.55 mL/s | Vz volume of distribution based on the terminal slope [1, 3]: 2097.36 ± 1309.61 mL | MRT [2, 4]: 8.48 min | Vd ([2]; 1 ug/kg, intravenous, 1 µg/Kg, n = 5, read-out: Vss volume of distribution at the steady state): 1.03 ± 0.695 L | Vd ([2]; 1 ug/kg, intravenous, 1 µg/Kg, n = 5, read-out: Vz volume of distribution based on the terminal slope): 2 ± 0.43 L | half-life [2, 4]: 11.7 ± 3.22 min | Vd ([2]; 5 mg/kg, intravenous, 5 mg/Kg, n = 5, read-out: Vss volume of distribution at the steady state): 1.13 ± 0.443 L | Vd ([2]; 5 mg/kg, intravenous, 5 mg/Kg, n = 5, read-out: Vz volume of distribution based on the terminal slope): 2.34 ± 0.609 L | half-life ([2]; 5 mg/kg, intravenous, 5 mg/Kg, n = 5): 13.6 ± 3.42 min | Vd ([2]; both groups (1 µg/Kg and 5 mg/Kg) pooled together, read-out: Vss volume of distribution at the steady state): 1.08 ± 0.809 L | Vd ([2]; both groups (1 µg/Kg and 5 mg/Kg) pooled together, read-out: Vz volume of distribution based on the terminal slope): 2.17 ± 1.13 L | half-life [2, 3]: 12.6 ± 3.3 min | MRT ([2]; intravenous, 5 mg/Kg, n = 5): 8.59 min | MRT [2, 5]: 8.53 min | AUC area under the curve ([2]; intravenous, 1 µg/Kg, n = 5): 53.99 ± 11.04 %IDxs/mL | Cl plasma clearance ([2]; intravenous, 1 µg/Kg, n = 5): 1.91 ± 0.41 mL/s | AUC area under the curve ([2]; intravenous, 5 mg/Kg, n = 5): 59.39 ± 19.76 %IDxs/mL | Cl plasma clearance ([2]; intravenous, 5 mg/Kg, n = 5): 1.87 ± 0.73 mL/s | AUC area under the curve [2, 5]: 56.69 ± 15.36 %IDxs/mL | Cl plasma clearance [2, 5]: 1.89 ± 0.55 mL/s | t1/2 terminal half-life [2, 5]: 12.63 ± 3.29 min | IC50 (FKBP12; 30 nM rapamycin, AHK2 1 μM–10 mM, read-out: IC50, displacement of rapamycin from FKBP12 (inhibition of FKBP12-Rapamycin-FRB interaction)): 2980 µM | induction of FKBP12/FRB dimerization (luminescence) (FKBP12; rapamycin 30 nM): did not induce FKBP12/FRB dimerization; also recorded: not able to induce FKBP12/FRB dimerization
